Assay results as given in patent US20220402901A1 (Bial - R&D Investments, S.A., priority 2019, published 2022).
Converted amounts (≈) assume the structure as drawn.

How the values were obtained:
[1] = target: T1, Human acid ceramidase (hACR) (Homo sapiens, UniProt Q13510); test: Acid ceramidase biochemical fluorescent assay (cell lysates overexpressing acid ceramidase, substrate Rbm14-12); settings: 10 μg lysate protein, 1 hr preincubation at RT, pH 4.5, Rbm14-12 6.3 μM
T1 construct: expressed in transfected cells; lysates of cells overexpressing acid ceramidase
T1 sequence (Q13510 22-395): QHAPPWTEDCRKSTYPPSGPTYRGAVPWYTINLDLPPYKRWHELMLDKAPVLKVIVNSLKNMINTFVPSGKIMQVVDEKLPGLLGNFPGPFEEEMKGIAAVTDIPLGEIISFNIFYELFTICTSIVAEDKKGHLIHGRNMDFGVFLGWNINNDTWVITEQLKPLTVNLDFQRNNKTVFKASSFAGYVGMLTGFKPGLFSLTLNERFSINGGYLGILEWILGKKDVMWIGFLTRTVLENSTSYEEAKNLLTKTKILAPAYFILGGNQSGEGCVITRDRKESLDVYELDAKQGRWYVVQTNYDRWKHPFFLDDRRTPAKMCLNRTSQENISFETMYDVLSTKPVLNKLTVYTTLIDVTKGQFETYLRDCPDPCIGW
Description: The ability of exemplary compounds to inhibit acid ceramidase was measured.
Cell lysates overexpressing acid ceramidase were used as the enzyme source for compound potency determination in a biochemical fluorescent assay. Briefly, compounds were preincubated with 10 μg protein of cell lysates in a dose-response manner for 1 hr at RT in the assay buffer containing 25 mM NaAC and 100 mM NaCl, pH 4.5. The reaction was initiated by the addition of substrate Rbm14-12 at a final concentration of 6.3 μM. The reaction was run at RT for 1 hr before it was stopped by the addition of the stopping buffer containing 20% methanol (v/v), 1 mg/ml NaIO4, 0.1 M glycine, pH 10.6. The samples were incubated with the stopping buffer at RT for 1 hr to allow the fluorescent product to be formed. Finally the plate was read with SpectraMax i3 plate reader (Molecular Devices) at ex360 nm and em446 nm. Data were collected and used to determine the IC50 values of compounds by curve fitting to the four-parameter inhibition equation.
The symbol “A” indicates inhibition of less than 0.2 μM; the symbol “B” indicates inhibition in the range of 0.2 μM up to 1 μM; and the symbol “C” indicates inhibition of greater than 1 μM.

[2] = Compound solubility in water; format: physicochemical; settings: read-out: Solubility in H2O

Structure (SMILES)	IC50 [1]	solubility [2]
O=C(NCCCCc1ccccc1)N1CCC(c2ccc3[nH]c(=O)oc3c2)CC1 [Example 1, 4-(2-Oxo-3H-1,3-benzoxazol-6-yl)-N-(4-phenylbutyl)piperidine-1-carboxamide]	200 to 1000 nM	2.4 µM (≈ 0.944 µg/mL)
CC(C)CNC(=O)N1CCC(c2ccc3c(c2)oc(=O)n3C)CC1 [Example 3, N-iso-Butyl 4-(3-methyl-2-oxo-1,3-benzoxazol-6-yl)piperidine-1-carboxamide]	> 1000 nM	126 µM (≈ 41.8 µg/mL)
CN1CCC(n2c(=O)oc3cc(C4CCN(C(=O)NCCCCc5ccccc5)CC4)ccc32)CC1 [Example 6, 4-[3-(1-Methyl-4-piperidyl)-2-oxo-1,3-benzoxazol-6-yl]-N-(4-phenylbutyl)piperidine-1-carboxamide]	> 1000 nM	10 µM (≈ 4.91 µg/mL)
Cn1c(=O)oc2c(C3CCN(C(=O)NCCCCc4ccccc4)CC3)cccc21 [Example 7, 4-(3-Methyl-2-oxo-1,3-benzoxazol-7-yl)-N-(4-phenylbutyl)piperidine-1-carboxamide]	> 1000 nM	13 µM (≈ 5.3 µg/mL)
CC(C)CNC(=O)N1CCC(c2cccc3c2oc(=O)n3C)CC1 [Example 8, N-iso-Butyl-4-(3-methyl-2-oxo-1,3-benzoxazol-7-yl)piperidine-1-carboxamide]	> 1000 nM	143 µM (≈ 47.4 µg/mL)
Cn1c(=O)oc2ccc(C3CCN(C(=O)NCCCCc4ccccc4)CC3)cc21 [Example 9, 4-(3-Methyl-2-oxo-1,3-benzoxazol-5-yl)-N-(4-phenylbutyl)piperidine-1-carboxamide]	> 1000 nM	15 µM (≈ 6.11 µg/mL)
Cn1c(=O)oc2cccc(C3CCN(C(=O)NCCCCc4ccccc4)CC3)c21 [Example 10, 4-(3-Methyl-2-oxo-1,3-benzoxazol-4-yl)-N-(4-phenylbutyl)piperidine-1-carboxamide]	> 1000 nM	9 µM (≈ 3.67 µg/mL)
Cn1c(=O)oc2cc(C3CCCN(C(=O)NCCCCc4ccccc4)C3)ccc21 (centres unmarked) [Example 12, 3-(3-Methyl-2-oxo-1,3-benzoxazol-6-yl)-N-(4-phenylbutyl)piperidine-1-carboxamide]	> 1000 nM	8 µM (≈ 3.26 µg/mL)
C[C@H]1CC(c2ccc3c(c2)oc(=O)n3C)CCN1C(=O)NCCc1ccccc1 (stereo partly drawn) [Example 21, (2S)-Methyl-4-(3-methyl-2-oxo-1,3-benzoxazol-6-yl)-N-(2-phenylethyl)piperidine-carboxamide]	200 to 1000 nM	56 µM (≈ 22 µg/mL)
CC(C)CNC(=O)N1CCC(c2ccc3c(c2)oc(=O)n3C)C[C@@H]1C (stereo partly drawn) [Example 22, N-iso-Butyl (2S)-methyl-4-(3-methyl-2-oxo-1,3-benzoxazol-6-yl)piperidine-1-carboxamide]	200 to 1000 nM	235 µM (≈ 81.2 µg/mL)
Cn1c(=O)oc2cc(C3CCN(C(=O)NCCCCc4ccccc4)C(C)(C)C3)ccc21 (centres unmarked) [Example 24, 2,2-Dimethyl-4-(3-methyl-2-oxo-1,3-benzoxazol-6-yl)-N-(4-phenylbutyl)piperidine-1-carboxamide]	< 200 nM	1.3 µM (≈ 0.566 µg/mL)
Cn1c(=O)oc2cc(C3CCN(C(=O)NCCc4ccccc4)C(C)(C)C3)ccc21 (centres unmarked) [Example 25, 2,2-Dimethyl-4-(3-methyl-2-oxo-1,3-benzoxazol-6-yl)-N-(2-phenylethyl)piperidine-1-carboxamide]	< 200 nM	26 µM (≈ 10.6 µg/mL)
Cn1c(=O)oc2cc(C3CCN(C(=O)NCCCc4ccccc4)C(C)(C)C3)ccc21 (centres unmarked) [Example 26, 2,2-Dimethyl-4-(3-methyl-2-oxo-1,3-benzoxazol-6-yl)-N-(3-phenylpropyl)piperidine-1-carboxamide]	< 200 nM	5.8 µM (≈ 2.44 µg/mL)
Cn1c(=O)oc2cc(C3CCN(C(=O)NCCOCc4ccccc4)C(C)(C)C3)ccc21 (centres unmarked) [Example 27, N-(2-Benzyloxyethyl)-2,2-dimethyl-4-(3-methyl-2-oxo-1,3-benzoxazol-6-yl)piperidine-1-carboxamide]	< 200 nM	9.4 µM (≈ 4.11 µg/mL)
CCCCCNC(=O)N1CCC(c2ccc3c(c2)oc(=O)n3C)CC1(C)C (centres unmarked) [Example 28, 2,2-Dimethyl-4-(3-methyl-2-oxo-1,3-benzoxazol-6-yl)-N-pentylpiperidine-1-carboxamide]	< 200 nM	1.7 µM (≈ 0.635 µg/mL)
Cn1c(=O)oc2cc(C3CCN(C(=O)NCCC4CC4)C(C)(C)C3)ccc21 (centres unmarked) [Example 29, N-(2-Cyclopropylethyl)-2,2-dimethyl-4-(3-methyl-2-oxo-1,3-benzoxazol-6-yl)piperidine-1-carboxamide]	200 to 1000 nM	250 µM (≈ 92.9 µg/mL)

Structure (SMILES)	IC50 [1]	solubility [2]
Cn1c(=O)oc2cc(C3CCN(C(=O)NCCCCC4CC4)C(C)(C)C3)ccc21 (centres unmarked) [Example 31, N-(4-Cyclopropylbutyl)-2,2-dimethyl-4-(3-methyl-2-oxo-1,3-benzoxazol-6-yl)piperidine-1-carboxamide]	< 200 nM	0.3 µM (≈ 0.12 µg/mL)
Cn1c(=O)oc2cc(C3CC4CCC(C3)N4C(=O)NCCCCc3ccccc3)ccc21 (centres unmarked) [Example 33, 3-(3-Methyl-2-oxo-1,3-benzoxazol-6-yl)-N-(4-phenylbutyl)-8-azabicyclo[3.2.1]octane-8-carboxamide]	< 200 nM	3.2 µM (≈ 1.39 µg/mL)
Cn1c(=O)oc2cc(C3CCN(C(=O)NCCCCc4ccccc4)C(=O)C3)ccc21 (centres unmarked) [Example 35, 4-(3-Methyl-2-oxo-1,3-benzoxazol-6-yl)-2-oxo-N-(4-phenylbutyl)piperidine-1-carboxamide]	> 1000 nM	< 1 µM
Cn1c(=O)oc2cc(C3CCCCN3C(=O)NCCCCc3ccccc3)ccc21 (centres unmarked) [Example 37, 2-(3-Methyl-2-oxo-1,3-benzoxazol-6-yl)-N-(4-phenylbutyl)piperidine-1-carboxamide]	> 1000 nM	30 µM (≈ 12.2 µg/mL)
Cn1c(=O)oc2cc(C3CNCCN3C(=O)NCCCCc3ccccc3)ccc21 (centres unmarked) [Example 39, 2-(3-Methyl-2-oxo-1,3-benzoxazol-6-yl)-N-(4-phenylbutyl)piperazine-1-carboxamide]	> 1000 nM	241 µM (≈ 98.4 µg/mL)
CN1CCN(C(=O)NCCCCc2ccccc2)C(c2ccc3c(c2)oc(=O)n3C)C1 (centres unmarked) [Example 40, 4-Methyl-2-(3-methyl-2-oxo-1,3-benzoxazol-6-yl)-N-(4-phenylbutyl)piperazine-1-carboxamide]	> 1000 nM	224 µM (≈ 94.6 µg/mL)
CN1CCN(C(=O)NCCCCc2ccccc2)CC1c1ccc2c(c1)oc(=O)n2C (centres unmarked) [Example 41, 4-Methyl-3-(3-methyl-2-oxo-1,3-benzoxazol-6-yl)-N-(4-phenylbutyl)piperazine-1-carboxamide]	> 1000 nM	135 µM (≈ 57 µg/mL)
Cn1c(=O)oc2cc(C3COCC(C)(C)N3C(=O)NCCCCc3ccccc3)ccc21 (centres unmarked) [Example 42, 3,3-Dimethyl-5-(3-methyl-2-oxo-1,3-benzoxazol-6-yl)-N-(4-phenylbutyl) morpholine-4-carboxamide]	< 200 nM	14.8 µM (≈ 6.48 µg/mL)
CCCCCNC(=O)N1C(c2ccc3c(c2)oc(=O)n3C)COCC1(C)C (centres unmarked) [Example 43]	< 200 nM	69.1 µM (≈ 25.9 µg/mL)
Cn1c(=O)oc2cc(N3CCN(C(=O)NCCCCc4ccccc4)CC3)ccc21 [Example 46, 4-(3-Methyl-2-oxo-1,3-benzoxazol-6-yl)-N-(4-phenylbutyl)piperazine-1-carboxamide]	200 to 1000 nM	6 µM (≈ 2.45 µg/mL)
CN(C)CCn1c(=O)oc2cc(N3CCN(C(=O)NCCCCc4ccccc4)CC3)ccc21 [Example 47, 4-[3-[2-(Dimethylamino)ethyl]-2-oxo-1,3-benzoxazol-6-yl]-N-(4-phenylbutyl)piperazine-1-carboxamide]	> 1000 nM	250 µM (≈ 116 µg/mL)
C[C@@H]1CN(c2ccc3c(c2)oc(=O)n3C)CCN1C(=O)NCCCCc1ccccc1 [Example 48, (2R)-2-Methyl-4-(3-methyl-2-oxo-1,3-benzoxazol-6-yl)-N-(4-phenylbutyl)piperazine-1-carboxamide]	200 to 1000 nM	4.3 µM (≈ 1.82 µg/mL)
Cn1c(=O)oc2cc(N3CCN(C(=O)NCCCCc4ccccc4)C(C)(C)C3)ccc21 [Example 50, 2,2-Dimethyl-4-(3-methyl-2-oxo-1,3-benzoxazol-6-yl)-N-(4-phenylbutyl)piperazine-1-carboxamide]	< 200 nM	0.3 µM (≈ 0.131 µg/mL)
Cn1c(=O)oc2cc(N3CCN(C(=O)NCCc4ccccc4)C(C)(C)C3)ccc21 [Example 51, 2,2-Dimethyl-4-(3-Methyl-2-oxo-1,3-benzoxazol-6-yl)-N-(2-phenylethyl)piperazine-1-carboxamide]	200 to 1000 nM	0.9 µM (≈ 0.368 µg/mL)
Cn1c(=O)oc2cc(N3CCN(C(=O)NCCCCC4CC4)C(C)(C)C3)ccc21 [Example 52, N-(4-Cyclopropylbutyl)-2,2-dimethyl-4-(3-methyl-2-oxo-1,3-benzoxazol-6-yl)piperazine-1-carboxamide]	< 200 nM	0.9 µM (≈ 0.36 µg/mL)
